The source of these data is patent US20090191173A1, “Induction Of Neurogenesis And Stem Cell Therapy In Combination With Copolymer 1” (priority 2004, published 2009).

The test system of test [1] is microglia. The test is described as follows: TNF-α and IGF-I expression in treated microglia (RT-PCR, immunocytochemistry). The class given is cell-based, mouse. The note with it: IFN-γ 20 ng/ml. The source says:
(vi) Immunocytochemistry. Cover slips from co-cultures of NPCs and mouse microglia were washed with PBS, fixed as described above, treated with a permeabilization/blocking solution containing 10% FCS, 2% bovine serum albumin, 1% glycine, and 0.1% Triton X-100 (Sigma-Aldrich, Rehovot) and stained with a combination of the mouse or rabbit anti-tubulin β-III-isoform C-terminus antibodies (β-III-tubulin; 1:500), rabbit anti-NG2 chondroitin sulfate proteoglycan (NG2; 1:500), mouse anti-RIP (RIP; 1:2000), mouse anti-galactocerebroside (GalC; 1:250), mouse anti-glutamic acid decarboxylase 67 (GAD; 1:1000), mouse anti-nestin (Nestin; 1:1000), rat anti-myelin basic protein (MBP; 1:300) (all from Chemicon, Temecula, Calif.), goat anti-double cortin (DCX; 1:400, Santa Cruz Biotechnology, Santa Cruz, Calif.) and mouse anti-glial fibrillary acidic protein (GFAP; 1:100, Sigma-Aldrich, St. Louis). […] Expression of IGF-1 was detected by goat anti-IGF-1 (1:20, R&D Systems). […]
We assayed the expression of specific mRNAs using semi-quantitative reverse transcription PCR (RT-PCR) with selected gene-specific primer pairs, using OLIGO v6.4 (Molecular Biology Insights, Cascade, Colo.).
The RT-PCR reactions were carried out using 1 μg of cDNA, […] of each primer, and ReadyMix PCR Master Mix (ABgene, Epsom, UK) in 30-μl reactions. […] Signals were quantified using a Gel-Pro analyzer 3.1 (Media Cybernetics).

Test [2] deals with aNPCs. The test is described as follows: Neuronal differentiation of aNPCs with CD4+ T cells, T cell-conditioned medium or cytokines. The class given is cell-based, mouse. The note with it: 5 days in culture with cytokine, concentrations as low as 1 ng/ml. The protocol:
(xvii) Co-culturing of neural progenitor cells and T cells. CD4+ T cells were purified from lymph nodes of 8-week-old C57B16/J mice as previously described (Kipnis et al., 2004). T cells were activated in RPMI medium supplemented with L-glutamine (2 mM), 2-mercaptoethanol (5×10^−5 M), sodium pyruvate (1 mM), penicillin (100 IU/ml), streptomycin (100 μg/ml), nonessential amino acids (1 ml/100 ml), and autologous serum 2% (v/v) in the presence of mouse recombinant IL-2 (mrIL-2; 5 ng/ml) and soluble anti-CD28 and anti-CD3. antibodies (1 ng/ml). T cells were co-cultured (5×10^4 cells/well) with aNPCs (5×10^4 cells/well) for 5 d on cover slips coated with Matrigel (BD Biosciences) in 24-well plates. The cultures were then fixed with 2.5% paraformaldehyde in PBS for 30 min at room temperature and stained for neuronal markers.
We therefore sought to determine whether direct interaction between aNPCs and T cells would also result in an altered pattern of aNPC differentiation. To address this question, we activated CD4+ T cells in vitro by a cognate protocol (with anti-CD3 antibodies, anti-CD28 antibodies, and IL-2) for 24 h and then allowed their activation to continue in co-cultures with aNPCs in a transwell culture system. […] After 5 days in culture the aNPCs in the lower chamber were fixed and analyzed for the appearance of newly formed neurons. […]

Consider IFN-γ: recombinant interferon-γ, for which, in test [1], the “IGF-I mRNA in microglia as a function of time” value was “down-regulation of IGF-I” and the “TNF-α production by microglia as a function of time” value was “transient increase in TNF-α production”. For the same substance, the “β-III-tubulin expression in aNPCs” value in test [2] is “could induce an increase in β-III-tubulin expression”.
